Source: ChEMBL document CHEMBL4825674, “Phorbol Esters from the Latex of Euphorbia umbellata: Bioguided Isolation of Highly Potent HIV-1 Latency Interrupters in Virus Reservoir Cells” (2021)

What was measured:
[1] = test system: Human immunodeficiency virus 1; assay: Reactivation of HIV-1 latency infected in GFP-fused J-Lat 10.6 cells assessed as HIV-1 latency reactivation in reservoir cells at 2.24 uM incubated for 24 hrs flow cytometry analysis; format: functional
MT4 = assay: Cytotoxicity against human MT4 cells assessed as cell viability at 1 ug/ml incubated for 24 hrs by CellTiter Blue viability assay; format: functional, cell-based; settings: dose 1.0 µg/ml
[2] = Reduction in CD4 expression in human MT4 cells at 1.77 uM incubated for 24 hrs by flow cytometry analysis; format: functional; design: scale not given: the % may be the effect or the level left
[3] = Reduction in CD4 expression in human MT4 cells at 1.94 uM incubated for 24 hrs by flow cytometry analysis; format: functional; design: scale not given: the % may be the effect or the level left
[4] = test system: Human immunodeficiency virus 1; assay: Reactivation of HIV-1 latency infected in GFP-fused J-Lat 10.6 cells assessed as HIV-1 latency reactivation in reservoir cells at 0.097 to 9.7 uM incubated for 24 hrs flow cytometry analysis; format: functional; settings: dose 0.097-9.7 µM
[5] = Reduction in CD4 expression in human MT4 cells at 1.82 uM incubated for 24 hrs by flow cytometry analysis; format: functional; design: scale not given: the % may be the effect or the level left
[6] = test system: Human immunodeficiency virus 1; assay: Reactivation of HIV-1 latency infected in GFP-fused J-Lat 10.6 cells assessed as HIV-1 latency reactivation in reservoir cells at 0.088 to 8.85 uM incubated for 24 hrs flow cytometry analysis; format: functional; settings: dose 0.088-8.85 µM

SMILES	Activity [1] [%]	Activity (MT4)	Activity [2] [%]	Activity [3] [%]	Activity [4] [%]	Activity [5] [%]	Activity [6] [%]
CCCCCC(=O)O[C@H]1C(C)=C[C@]23C(=O)[C@@H](C=C(CO)[C@@H](O)[C@]12O)[C@H]1[C@@H](C[C@H]3C)C1(C)C	70	–	–	–	–	–	–
C/C=C(/C)C(=O)O[C@@H]1[C@@H](C)[C@]2(O)[C@@H]3C=C(C)C(=O)[C@@]3(O)[C@H](O)C(C)=C[C@H]2[C@H]2C(C)(C)[C@]12OC(=O)C(C)C	–	Not toxic	40	40	70	40	–
C/C=C(/C)C(=O)O[C@@H]1[C@@H](C)[C@]2(O)[C@@H]3C=C(C)C(=O)[C@@]3(O)[C@H](O)C(C)=C[C@H]2[C@H]2C(C)(C)[C@]12OC(=O)Cc1ccccc1	–	Not toxic	–	–	–	–	70
